Earlier results as cited in patent US20080003300A1, “Compostions containing Mg/Zn/F-CaP plus inhibitors of pro-inflammatory Cytokines (a combination of a Free-B-Ring flavonoids and a flavan) for osteoporosis prevention, therapy and treatment of bone diseases” (priority 2006, published 2008).

Experiments:
COX-2 = biological target: T1, COX-2 (Ovis aries, UniProt P79208); conditions: Noreen et al. (1998)
T1 sequence (P79208 17-603): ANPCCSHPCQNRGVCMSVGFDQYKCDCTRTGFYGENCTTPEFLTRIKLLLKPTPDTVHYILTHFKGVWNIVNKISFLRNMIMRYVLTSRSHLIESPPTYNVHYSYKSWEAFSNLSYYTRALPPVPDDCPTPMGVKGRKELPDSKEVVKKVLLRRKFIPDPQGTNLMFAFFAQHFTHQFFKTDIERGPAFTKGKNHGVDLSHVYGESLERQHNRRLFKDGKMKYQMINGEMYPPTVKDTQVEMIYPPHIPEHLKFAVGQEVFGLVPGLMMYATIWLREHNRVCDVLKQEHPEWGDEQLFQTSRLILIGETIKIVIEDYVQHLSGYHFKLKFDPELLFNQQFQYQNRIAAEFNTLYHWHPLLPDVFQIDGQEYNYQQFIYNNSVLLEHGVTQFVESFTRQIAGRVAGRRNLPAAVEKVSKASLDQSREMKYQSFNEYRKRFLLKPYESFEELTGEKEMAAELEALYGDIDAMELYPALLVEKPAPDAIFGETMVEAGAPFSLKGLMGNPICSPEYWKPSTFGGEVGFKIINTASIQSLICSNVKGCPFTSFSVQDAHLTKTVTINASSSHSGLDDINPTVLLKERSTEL

[1] = system: prostaglandin endoperoxide synthase; conditions: Kalkbrenner et al. (1992)
[2] = system: COX-2 gene transcription in human colon cancer DLD-1 cells; conditions: Mutoh et al. (2000)

## Oc1cc(O)c2c(c1)O[C@H](c1ccc(O)c(O)c1)[C@@H](O)C2 [(+)-catechin]
COX-2
  selectivity for COX-2: no selectivity for COX-2

## Oc1cc(O)c2c(c1)OC(c1ccc(O)c(O)c1)C(O)C2 (stereo not drawn) [Catechin]
[1]
  IC50: 40 µM
[2]
  IC50: 415 µM
